Data taken from patent publication US20230111310A1, “CARBOXYLIC ACID DERIVATIVE-SUBSTITUTED IMINO ARYL COMPOUND, PREPARATION METHOD THEREFOR, HERBICIDAL COMPOSITION AND USE THEREOF” (Qingdao Kingagroot Chemical Compound Co., Ltd., priority 2020, published 2023).

Experiments:
Assay in all cases: Weeding effect in post-emergence stage
Format in all cases: in vivo
[1] = test system: Echinochloa crusgalli; conditions: for Weeding effect in post-emergence stage, Echinochloa crusgalli: level of fresh weight growth control rate; for Weeding effect in post-emergence stage, Echinochloa crusgalli (level): fresh weight control rate level
How it was run: (§1)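 Doses of 500, 250, 125, 60, 30, 15 and 7.5 g/ha, with methyl oleate synergist (1.5 liter/ha) and Tween 80 from acetone solution, applied by spray tower post-emergence (2–3 leaf stage). Weed control scored after 3 further greenhouse weeks, averaged over triplicates.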

[2] = test system: Setaria viridis; conditions: for Weeding effect in post-emergence stage, Setaria viridis: level of fresh weight growth control rate; for Weeding effect in post-emergence stage, Setaria viridis (level): fresh weight control rate level
How it was run: as §1

[3] = test system: Alopecurus japonicus; conditions: for Weeding effect in post-emergence stage, Alopecurus japonicus: level of fresh weight growth control rate; for Weeding effect in post-emergence stage, Alopecurus japonicus (level): fresh weight control rate level
How it was run: as §1

[4] = test system: Abutilon theophrasti; conditions: for Weeding effect in post-emergence stage, Abutilon theophrasti: level of fresh weight growth control rate; for Weeding effect in post-emergence stage, Abutilon theophrasti (level): fresh weight control rate level
How it was run: as §1

[5] = test system: Eleusine indica; conditions: for Weeding effect in post-emergence stage, Eleusine indica: level of fresh weight growth control rate; for Weeding effect in post-emergence stage, Eleusine indica (level): fresh weight control rate level
How it was run: as §1

[6] = test system: Digitaria sanguinalis; conditions: for Weeding effect in post-emergence stage, Digitaria sanguinalis: level of fresh weight growth control rate; for Weeding effect in post-emergence stage, Digitaria sanguinalis (level): fresh weight control rate level
How it was run: as §1

Compound	Weeding effect in post-emergence stage, Echinochloa crusgalli ([1]; Dose 15 g/ha)	Weeding effect in post-emergence stage, Setaria viridis ([2]; Dose 15 g/ha)	Weeding effect in post-emergence stage, Alopecurus japonicus ([3]; Dose 15 g/ha)	Weeding effect in post-emergence stage, Abutilon theophrasti ([4]; Dose 15 g/ha)	Weeding effect in post-emergence stage, Eleusine indica ([5]; Dose 15 g/ha)	Weeding effect in post-emergence stage, Digitaria sanguinalis ([6]; Dose 15 g/ha)	further results
CCOC(=O)COC(=O)[C@@H](C)O/N=C/c1cc(-n2c(=O)n(C)c(=S)n(C)c2=O)c(F)cc1Cl [17(R)]	5 (Level 5: growth control rate is above 85%)	5 (Level 5: growth control rate is above 85%)	5 (Level 5: growth control rate is above 85%)	5 (Level 5: growth control rate is above 85%)	5 (Level 5: growth control rate is above 85%)	5 (Level 5: growth control rate is above 85%)	–
CCOC(=O)CO/N=C/c1cccc(-n2c(=O)cc(C(F)(F)F)[nH]c2=O)c1 [Control compound F, reference compound]	–	–	–	–	–	–	Weeding effect in post-emergence stage, Echinochloa crusgalli (level) ([1]; Dose 60 g/ha): 0 (Level 0: growth control rate is less than 5%); Weeding effect in post-emergence stage, Setaria viridis (level) ([2]; Dose 60 g/ha): 1 (Level 1: growth control rate is greater than or equal to 5% and less than 20%); Weeding effect in post-emergence stage, Alopecurus japonicus (level) ([3]; Dose 60 g/ha): 0 (Level 0: growth control rate is less than 5%); Weeding effect in post-emergence stage, Abutilon theophrasti (level) ([4]; Dose 60 g/ha): 2 (Level 2: growth control rate is greater than or equal to 20% and less than 40%); Weeding effect in post-emergence stage, Eleusine indica (level) ([5]; Dose 60 g/ha): 1 (Level 1: growth control rate is greater than or equal to 5% and less than 20%); Weeding effect in post-emergence stage, Digitaria sanguinalis (level) ([6]; Dose 60 g/ha): 1 (Level 1: growth control rate is greater than or equal to 5% and less than 20%)
CCOC(=O)C(O/N=C/c1cc(-n2c(=O)cc(C(F)(F)F)n(C)c2=O)c(F)cc1Cl)C1CC1 (stereo not drawn) [Compound 319]	–	–	–	–	–	–	Weeding effect in post-emergence stage, Echinochloa crusgalli ([1]; Dose 30 g/ha): 5 (Level 5: growth control rate is above 85%); Weeding effect in post-emergence stage, Setaria viridis ([2]; Dose 30 g/ha): 5 (Level 5: growth control rate is above 85%); Weeding effect in post-emergence stage, Alopecurus japonicus ([3]; Dose 30 g/ha): 5 (Level 5: growth control rate is above 85%); Weeding effect in post-emergence stage, Abutilon theophrasti ([4]; Dose 30 g/ha): 5 (Level 5: growth control rate is above 85%); Weeding effect in post-emergence stage, Eleusine indica ([5]; Dose 30 g/ha): 5 (Level 5: growth control rate is above 85%); Weeding effect in post-emergence stage, Digitaria sanguinalis ([6]; Dose 30 g/ha): 5 (Level 5: growth control rate is above 85%)
C=CCCOC(=O)[C@@H](C)O/N=C/c1cc(-n2c(=O)n(C)c(=S)n(C)c2=O)c(F)cc1Cl [6(R)]	5 (Level 5: growth control rate is above 85%)	5 (Level 5: growth control rate is above 85%)	5 (Level 5: growth control rate is above 85%)	5 (Level 5: growth control rate is above 85%)	5 (Level 5: growth control rate is above 85%)	5 (Level 5: growth control rate is above 85%)	–
C[C@@H](O/N=C/c1cc(-n2c(=O)cc(C(F)(F)F)n(C)c2=O)c(F)cc1Cl)C(=O)Oc1ccccc1 [262(R)]	5 (Level 5: growth control rate is above 85%)	5 (Level 5: growth control rate is above 85%)	5 (Level 5: growth control rate is above 85%)	5 (Level 5: growth control rate is above 85%)	5 (Level 5: growth control rate is above 85%)	5 (Level 5: growth control rate is above 85%)	–
CCCCCCOC(=O)[C@@H](C)O/N=C/c1cc(-n2c(=O)cc(C(F)(F)F)n(C)c2=O)c(F)cc1Cl [204(R)]	5 (Level 5: growth control rate is above 85%)	5 (Level 5: growth control rate is above 85%)	5 (Level 5: growth control rate is above 85%)	5 (Level 5: growth control rate is above 85%)	5 (Level 5: growth control rate is above 85%)	5 (Level 5: growth control rate is above 85%)	–
CC(O/N=C/c1cc(-n2c(=O)cc(C(F)(F)F)n(C)c2=O)c(F)cc1Cl)C(=O)O (racemic) [Compound 193]	5 (Level 5: growth control rate is above 85%)	5 (Level 5: growth control rate is above 85%)	5 (Level 5: growth control rate is above 85%)	5 (Level 5: growth control rate is above 85%)	5 (Level 5: growth control rate is above 85%)	5 (Level 5: growth control rate is above 85%)	–
CCSC(=O)C(C)O/N=C/c1cc(-n2c(=O)n(C)c(=S)n(C)c2=O)c(F)cc1Cl (racemic) [Compound 168]	5 (Level 5: growth control rate is above 85%)	5 (Level 5: growth control rate is above 85%)	5 (Level 5: growth control rate is above 85%)	5 (Level 5: growth control rate is above 85%)	5 (Level 5: growth control rate is above 85%)	5 (Level 5: growth control rate is above 85%)	–
CCC[C@@H](O/N=C/c1cc(-n2c(=O)cc(C(F)(F)F)n(C)c2=O)c(F)cc1Cl)C(=O)OC [316(R)]	5 (Level 5: growth control rate is above 85%)	5 (Level 5: growth control rate is above 85%)	5 (Level 5: growth control rate is above 85%)	5 (Level 5: growth control rate is above 85%)	5 (Level 5: growth control rate is above 85%)	5 (Level 5: growth control rate is above 85%)	–
C[C@@H](O/N=C/c1cc(-n2c(=O)cc(C(F)(F)F)n(C)c2=O)c(F)cc1Cl)C(=O)ON1C(=O)CCC1=O [263(R)]	–	–	–	–	–	–	Weeding effect in post-emergence stage, Echinochloa crusgalli ([1]; Dose 60 g/ha): 5 (Level 5: growth control rate is above 85%); Weeding effect in post-emergence stage, Setaria viridis ([2]; Dose 60 g/ha): 5 (Level 5: growth control rate is above 85%); Weeding effect in post-emergence stage, Alopecurus japonicus ([3]; Dose 60 g/ha): 5 (Level 5: growth control rate is above 85%); Weeding effect in post-emergence stage, Abutilon theophrasti ([4]; Dose 60 g/ha): 5 (Level 5: growth control rate is above 85%); Weeding effect in post-emergence stage, Eleusine indica ([5]; Dose 60 g/ha): 5 (Level 5: growth control rate is above 85%); Weeding effect in post-emergence stage, Digitaria sanguinalis ([6]; Dose 60 g/ha): 5 (Level 5: growth control rate is above 85%)
CON(C)C(=O)C(C)O/N=C/c1cc(-n2c(=O)cc(C(F)(F)F)n(C)c2=O)c(F)cc1Cl (stereo not drawn) [Compound 419]	–	–	–	–	–	–	Weeding effect in post-emergence stage, Echinochloa crusgalli (level) ([1]; Dose 15 g/ha): 5 (Level 5: growth control rate is above 85%); Weeding effect in post-emergence stage, Setaria viridis (level) ([2]; Dose 15 g/ha): 5 (Level 5: growth control rate is above 85%); Weeding effect in post-emergence stage, Alopecurus japonicus (level) ([3]; Dose 15 g/ha): 5 (Level 5: growth control rate is above 85%); Weeding effect in post-emergence stage, Abutilon theophrasti (level) ([4]; Dose 15 g/ha): 5 (Level 5: growth control rate is above 85%); Weeding effect in post-emergence stage, Eleusine indica (level) ([5]; Dose 15 g/ha): 5 (Level 5: growth control rate is above 85%); Weeding effect in post-emergence stage, Digitaria sanguinalis (level) ([6]; Dose 15 g/ha): 5 (Level 5: growth control rate is above 85%)
COC(=O)[C@H](CF)O/N=C/c1cc(-n2c(=O)cc(C(F)(F)F)n(C)c2=O)c(F)cc1Cl [463(R)]	–	–	–	–	–	–	Weeding effect in post-emergence stage, Echinochloa crusgalli (level) ([1]; Dose 15 g/ha): 5 (Level 5: growth control rate is above 85%); Weeding effect in post-emergence stage, Setaria viridis (level) ([2]; Dose 15 g/ha): 5 (Level 5: growth control rate is above 85%); Weeding effect in post-emergence stage, Alopecurus japonicus (level) ([3]; Dose 15 g/ha): 5 (Level 5: growth control rate is above 85%); Weeding effect in post-emergence stage, Abutilon theophrasti (level) ([4]; Dose 15 g/ha): 5 (Level 5: growth control rate is above 85%); Weeding effect in post-emergence stage, Eleusine indica (level) ([5]; Dose 15 g/ha): 5 (Level 5: growth control rate is above 85%); Weeding effect in post-emergence stage, Digitaria sanguinalis (level) ([6]; Dose 15 g/ha): 5 (Level 5: growth control rate is above 85%)
COC(=O)[C@H](O/N=C/c1cc(-n2c(=O)cc(C(F)(F)F)n(C)c2=O)c(F)cc1Cl)C(C)C [318(R)]	5 (Level 5: growth control rate is above 85%)	5 (Level 5: growth control rate is above 85%)	5 (Level 5: growth control rate is above 85%)	5 (Level 5: growth control rate is above 85%)	5 (Level 5: growth control rate is above 85%)	5 (Level 5: growth control rate is above 85%)	–
COC(=O)C(C)O/N=C/c1cc(-n2c(=S)cc(C(F)(F)F)n(C)c2=S)c(F)cc1C#N (racemic) [Compound 393]	–	–	–	–	–	–	Weeding effect in post-emergence stage, Echinochloa crusgalli (level) ([1]; Dose 60 g/ha): 5 (Level 5: growth control rate is above 85%); Weeding effect in post-emergence stage, Setaria viridis (level) ([2]; Dose 60 g/ha): 5 (Level 5: growth control rate is above 85%); Weeding effect in post-emergence stage, Alopecurus japonicus (level) ([3]; Dose 60 g/ha): 5 (Level 5: growth control rate is above 85%); Weeding effect in post-emergence stage, Abutilon theophrasti (level) ([4]; Dose 60 g/ha): 5 (Level 5: growth control rate is above 85%); Weeding effect in post-emergence stage, Eleusine indica (level) ([5]; Dose 60 g/ha): 5 (Level 5: growth control rate is above 85%); Weeding effect in post-emergence stage, Digitaria sanguinalis (level) ([6]; Dose 60 g/ha): 5 (Level 5: growth control rate is above 85%)
CCCCOC(=O)[C@@H](C)O/N=C/c1cc(-n2c(=O)cc(C(F)(F)F)n(C)c2=O)c(F)cc1Cl [200(R)]	5 (Level 5: growth control rate is above 85%)	5 (Level 5: growth control rate is above 85%)	5 (Level 5: growth control rate is above 85%)	5 (Level 5: growth control rate is above 85%)	5 (Level 5: growth control rate is above 85%)	5 (Level 5: growth control rate is above 85%)	–
